# Reference: patent publication US8623426B2, “Composition for preventing or treating diseases caused by influenza viruses” (Korea Institute of Oriental Medicine, priority 2009, dated 2014)
# Like-named read-outs stand apart in the source and are kept apart here.
# Legend:
# influenza virus = type: cell-based; settings: 1.23 mg/ml
compound,measurement,setting,value
"CCOC(=O)C1=C[C@@H](OC(CC)CC)[C@H](NC(C)=O)[C@@H](N)C1 [Tamiflu, oseltamivir]",cytotoxicity,MDCK cells,comparatively high cytotoxicity
same,Cell viability (%),MDCK cells; 0.14 mg/ml,64.02%
same,Cell viability (%),MDCK cells; 0.41 mg/ml,54.94%
same,Cell viability (%),MDCK cells; 1.23 mg/ml,20.83%
same,cytotoxicity,MDCK cells; 1.23 mg/ml,showed high cytotoxicity
same,antiviral activity,influenza virus,no antiviral activity
